These compounds were tested against T1, L-CPT1 (Homo sapiens, UniProt P50416) (assay: CPT activity spectrophotometric assay with DTNB (Ellman's reagent), cell-free extracts of P. pastoris expressing CPT1). Settings: carnitine 500 μM, palmitoyl-CoA 80 μM, DTNB 300 μM, absorbance at 410 nm, pH 7.4; read-out: L-CPT1 inhibition IC50.
T1 construct: made in house; host or cells: Pichia pastoris strain X-33 (pGAPZB/pGAPZA vector), crude cell-free extract
T1 sequence (P50416 1-773): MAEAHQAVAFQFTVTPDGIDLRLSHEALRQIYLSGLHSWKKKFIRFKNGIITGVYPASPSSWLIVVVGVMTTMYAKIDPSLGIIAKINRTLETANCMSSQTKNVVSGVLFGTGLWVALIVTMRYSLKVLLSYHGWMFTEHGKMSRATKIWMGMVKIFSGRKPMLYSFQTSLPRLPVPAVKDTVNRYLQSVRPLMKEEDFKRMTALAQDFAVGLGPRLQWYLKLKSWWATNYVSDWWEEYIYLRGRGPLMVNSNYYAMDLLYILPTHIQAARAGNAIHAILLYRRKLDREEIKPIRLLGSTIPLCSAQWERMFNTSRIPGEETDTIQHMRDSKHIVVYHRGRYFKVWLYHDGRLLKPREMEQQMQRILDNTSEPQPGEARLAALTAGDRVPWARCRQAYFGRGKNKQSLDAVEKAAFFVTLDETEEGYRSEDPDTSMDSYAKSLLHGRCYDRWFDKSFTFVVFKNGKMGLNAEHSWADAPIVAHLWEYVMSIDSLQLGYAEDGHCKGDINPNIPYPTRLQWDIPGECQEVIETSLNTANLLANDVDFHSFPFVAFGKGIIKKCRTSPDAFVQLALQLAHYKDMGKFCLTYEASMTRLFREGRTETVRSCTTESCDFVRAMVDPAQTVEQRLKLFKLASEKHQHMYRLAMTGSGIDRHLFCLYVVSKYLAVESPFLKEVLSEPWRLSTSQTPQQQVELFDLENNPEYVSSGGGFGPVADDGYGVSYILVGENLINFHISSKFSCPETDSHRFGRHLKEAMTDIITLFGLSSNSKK
Assay type: biochemical
Description: The following tests were carried out in order to determine the activity of the compounds of the present invention. Background information on the performed assays can be found in: Jackson et al., 1999, Biochem. J. 341, 483-489 and Jackson et al., 2000, J. Biol. Chem. 275, 19560-19566.
Human liver and muscle CPT1 cDNAs and rat CPT2 cDNA were subcloned in pGAPZB or pGAPZA, respectively. These plasmids were used to transform P. pastoris strain X-33 via electroporation after the preparation of electrocompetent cells. High copy number clones were selected where necessary using 0.5 or 1 mg/ml Zeocin. Cultures for activity measurements were induced for 16 h in YPD medium (1% yeast extract, 2% peptone, 2% glucose). Crude cell extracts were prepared by disrupting the cells with glass beads or French Press, depending on fermenter sizes. After centrifugation, the cell-free extracts were resuspended in cell breaking buffer (50 mM Tris, pH 7.4, 100 mM KCl, 1 mM EDTA) in the presence of a protease inhibitor cocktail, before aliquoting and freezing at −20° C.
CPT activity was measured using a spectrophotometric assay using 5,5′-dithio-bis-(2-nitrobenzoic acid) (DTNB) also called Ellman's reagent. The HS-CoA released on the formation of acylcarnitine from carnitine (500 μM) and palmitoyl-CoA (80 μM) reduced DTNB (300 μM) forming 5-mercapto-(2-nitrobenzoic acid) witch absorbed at 410 nm with a molar coefficient extinction of 13600 M^−1·cm^−1. The assay buffer contained 120 mM KCl, 25 mM Tris, pH 7.4, 1 mM EDTA. This assay was used for the identification of selective inhibitors of the liver CPT1 isoform versus the muscle CPT1 and CPT2 isoforms.

Row | IC50 [µM] | Compound
1 | 0.881 | COc1cc(C(=O)Nc2ccc(C(=O)O)cc2)cc(NS(=O)(=O)c2cc(Cl)cc(Cl)c2)c1OC [Example 32, 4-[3-(3,5-Dichloro-benzenesulfonylamino)-4,5-dimethoxy-benzoylamino]-benzoic acid]
2 | 0.153 | O=C(O)c1ccc(NC(=O)c2ccc(Cl)c(NS(=O)(=O)c3cccc(Cl)c3)c2)cc1 [Example 21, 4-[4-Chloro-3-(3-chloro-benzenesulfonylamino)-benzoylamino]-benzoic acid]
3 | 0.192 | O=C(O)c1ccc(NC(=O)c2cccc(NS(=O)(=O)c3ccc(Cl)c(Cl)c3)c2)cc1 [Example 5, 4-[3-(3,4-Dichloro-benzenesulfonylamino)-benzoylamino]-benzoic acid]
